Results published in patent EP3907227A1, “TRILOBINE DERIVATIVES AND THEIR USE THEREOF IN THE TREATMENT OF MALARIA” (Institut Pasteur, priority 2020, dated 2021).
Like-named read-outs stand apart in the source and are kept apart here.

Tests used:
[1] = tested on: artemisinin-resistant parasites (strains 5150, 6591, 5248 and 6320); assay: Ring-stage Survival Assay (RSA); format: cell-based, P. falciparum; details: 0-3h rings
Description: Since compounds of the invention are active on early ring stage as shown by the experiments on the cell cycle, their ability to kill artemisinin-resistant parasites in the ring-stage survival assay was tested (strains 5150, 6591, 5248 and 6320, Figure 2).
0-3h synchronized ring-stage parasites were exposed to a treatment of 6h with either DMSO, 700nM dihydroartemisinin (DHA), three times the IC50 value of the compound to test or 700nM DHA in combination with three times the IC50 value of the compound to test. Parasitemia was assessed at 72 hours post-synchronization using giemsa-stained thin blood smears. Percentage of survival was calculated in comparison to a DMSO-treated control. The data were obtained in three independent experiments.

[2] = tested on: P. falciparum NF54 (drug-sensitive line); assay: Inhibition of proliferation of asynchronous asexual cultures (SYBR Green I based assay, 72h); format: cell-based; details: for IC50: SYBR Green I, read-out: Malaria CI50
Description: Compounds were provided at a concentration of 10 mM in DMSO.
P. falciparum parasite are cultured using standard protocol (Trager and Jensen, Science 1976, 193(4254), 673-675). Briefly, parasites are cultured at 4% hematocrit (O+ human blood, Etablissement Français du Sang, France) in RPMI1640 complemented with 0.1% Albumax I, HEPES buffer, hypoxanthine, and gentamycin. They are incubated at 37°C under an atmosphere of 5% CO2 and 5% O2.
Compounds of the invention were assayed for a first screen at 5µM in duplicate against asynchronous asexual cultures of P. falciparum NF54 (drug-sensitive line) containing mostly rings (2% hematocrit. 0.5% starting parasitemia). Plates were incubated for 72h at 37°C under a reduced oxygen atmosphere. Parasite growth was assessed using the SYBR Green I based assay.
IC50 were determined using Graphpad Prism 6 software. Dihydroartemisinin (starting concentration 50nM) and DMSO were used as positive and negative controls.

Parasites = assay: Parasite reduction rate (time needed to kill the parasites); format: cell-based; details: survival curves, duration of treatment versus log viable parasites, Figure 3
Description: Parasites are incubated (see for example Sanz et al. PLoS ONE 7, e30949 (2012)) with a compound of the invention (or a reference) for different time-windows, washed, and diluted serially in 96-well plates in fresh red blood cells. Parasites are kept in culture for 3 to 4 weeks, when growth is assessed to evaluate the number of parasites that survive-correlated to the number of wells where growth is found. Survival curves are obtained by plotting the duration of treatment versus the log of the number of viable parasites (figure 3).

[3] = tested on: P. berghei ANKA strain GFP-expressing parasites; assay: In vivo activity, Peters 4-day suppressive test; details: C57BL/6 mice, 10mg/kg i.p. daily for four days
Description: In vivo activity was determined as previously described (Malmquist et al. Antimicrob. Agents Chemother. 2015, 59 (2), 950-959) following the Peters 4-day suppressive test (Peters, Ann. Trop. Med. Parasitol. 1975, 69 (2), 155-171), with slight modifications. C57BL/6 mice were infected intraperitoneally (i.p.) with 10^5 P. berghei ANKA strain GFP-expressing parasites (Ishino et al. Cell. Mol. Microbiol. 2006, 59 (4), 1175-1184). Two hours post-infection, mice were treated i.p. with a daily regimen of 10mg/kg of compound 84, or 25mg/kg of chloroquine, or the equivalent vehicle control (distillated water) for four days. Parasitemia was quantified from blood samples collected every day by flow cytometry of 50,000 RBCs and confirmed by Giemsa-stained blood smears.

Lab. Strain 3D7 = assay: Inhibition of proliferation, asynchronous asexual stages, SYBR-green assay, laboratory strain; format: cell-based, P. falciparum; details: Plasmodium falciparum, 3D7; 72h; laboratory strain, drug-sensitive; mean of three replicates; read-out: IC50 nM Lab. Strain 3D7 mean*
Description: (§1) Compounds 63 and 84 were evaluated regarding the inhibition of the proliferation of multi-resistant field isolates adapted to culture. A panel of four Cambodian strains bearing different molecular markers of resistance were selected: 3D7: Laboratory strain, drug-sensitive, 5150: Cambodian isolate resistant to Chloroquine and Pyrimethamine, 6591: Cambodian isolate resistant to Chloroquine, Pyrimethamine, 5248: Cambodian isolate resistant to Chloroquine, Pyrimethamine, Mefloquine and Artemisinin, 6320: Cambodian isolate resistant to Chloroquine, Pyrimethamine, Piperaquine and Artemisinin.
(§2) IC50 were obtained against asynchronous asexual stages using SYBR-green assay after 72h of incubation with a serial dilution of the compounds. Data represents the mean and SD of 3 independent experiments ran in triplicates. Table 2 illustrates mean IC50 values and their standard deviation in nanomolar.

Strain 6320 = assay: Inhibition of proliferation of multi-resistant field isolates, asynchronous asexual stages, SYBR-green assay; format: cell-based, P. falciparum; details: Plasmodium falciparum; 72h; Cambodian isolate resistant to Chloroquine, Pyrimethamine, Piperaquine and Artemisinin; mean of three replicates; read-out: IC50 nM Strain 6320 mean*
Description: as §1, §2

Strain 5150 = assay: as above; format: cell-based, P. falciparum; details: Plasmodium falciparum; 72h; Cambodian isolate resistant to Chloroquine and Pyrimethamine; mean of three replicates; read-out: IC50 nM Strain 5150 mean*
Description: as §1, §2

Strain 5248 = assay: as above; format: cell-based, P. falciparum; details: Plasmodium falciparum; 72h; Cambodian isolate resistant to Chloroquine, Pyrimethamine, Mefloquine and Artemisinin; mean of three replicates; read-out: IC50 nM Strain 5248 mean*
Description: as §1, §2

Strain 6591 = assay: as above; format: cell-based, P. falciparum; details: Plasmodium falciparum; 72h; Cambodian isolate resistant to Chloroquine, Pyrimethamine; mean of three replicates; read-out: IC50 nM Strain 6591 mean*
Description: as §1, §2

asexual NF54 parasites = assay: Stage-specificity during the asexual cell cycle (6h treatment windows, Giemsa smears); format: cell-based, P. falciparum
Description: To assess stage specificity of compounds of the invention, asexual NF54 parasites were tightly synchronized (0 to 3h post-invasion) using gelatin flotation and 5% D-sorbitol-treatment 3h later. […] Following the 6h-treatment, the corresponding cells were pelleted, washed with 10ml RPMI, and put back into culture in 500uL of complete media in a new plate. Parasitemia was assessed at 72 hours post-synchronization using giemsa-stained thin blood smears. Percentage of survival was calculated in comparison to a DMSO-treated control. The data were obtained in three independent experiments.

## COc1cc2c3c4c1Oc1cc5c(cc1O4)C(Cc1ccc(OCCCN(C)C)c(c1)Oc1ccc(cc1)CC3N(C)CC2)N(C)CC5 (stereo not drawn) [Compound 84]
[1]; 6h treatment with three times the IC50 value, Figure 2
  Killing of resistant rings (RSA), compound alone: kills resistant rings using three times the IC50 value in a similar manner whichever the strain considered
[1]; 6h treatment, three times the IC50 value plus 700nM DHA
  Killing of parasites (RSA), in combination with DHA: able to kill the parasites of all the tested strains in combination with 700nM dihydroartemisinin (DHA)
[2]; NF54, 72h
  IC50: 137 nM
[2]; Plasmodium falciparum, NF54, 72 h
  IC50: 130 ± 35 nM
[2]; Plasmodium falciparum, first screen at 5µM in duplicate, 72h, NF54, read-out: % survival @5uM
  activity at 5 µM: 14.9%
Parasites
  Speed of action (parasite reduction rate): act as fast as dihydroartemisinin (DHA)
[3]
  Severe malaria symptoms: do not develop severe malaria symptoms
  Survival after inoculation: 16 days
Lab. Strain 3D7
  IC50: 136 nM
Strain 6320
  IC50: 183 nM
Strain 5150
  IC50: 251 nM
Strain 5248
  IC50: 346 nM
Strain 6591
  IC50: 167 nM
Asexual NF54 parasites; synchronized NF54, 6h treatment, parasitemia at 72 hours post-synchronization, Figure 1
  Stage-specificity (survival after 6h treatment windows across the 48h cycle): active throughout the 48h cycle with an increased efficiency between 12 and 42h post-invasion
Asexual NF54 parasites; tested at one, two and three times the IC50 value
  Concentration from which the compound is active (stage-specificity assay): active starting from the concentration corresponding to 3 times the IC50 value
